Target: T1, human M1 receptor (hCHRM1) (Homo sapiens, UniProt P11229)
T1 construct: expressed in transfected cells
T1 sequence (P11229 1-460): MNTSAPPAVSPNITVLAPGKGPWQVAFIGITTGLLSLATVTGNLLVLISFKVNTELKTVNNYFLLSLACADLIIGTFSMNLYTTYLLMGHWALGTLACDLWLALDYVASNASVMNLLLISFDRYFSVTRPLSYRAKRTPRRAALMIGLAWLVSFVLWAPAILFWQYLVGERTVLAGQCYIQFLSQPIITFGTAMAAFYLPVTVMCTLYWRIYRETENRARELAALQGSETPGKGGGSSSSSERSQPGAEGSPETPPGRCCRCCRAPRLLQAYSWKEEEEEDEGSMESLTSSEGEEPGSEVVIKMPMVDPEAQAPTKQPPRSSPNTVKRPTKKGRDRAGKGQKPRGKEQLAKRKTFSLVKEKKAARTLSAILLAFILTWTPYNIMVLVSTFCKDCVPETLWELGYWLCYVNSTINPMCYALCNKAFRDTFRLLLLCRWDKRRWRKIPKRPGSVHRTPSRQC
Test: Measurement of M1 receptor positive allosteric modulator (M1PAM) activity, calcium fluorescence in CHO-K1 cells;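 on EC50: potency reported as IP value in nM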
Format: cell-based
Settings: for activity (%) at 10 μM: 10 μM test compound with acetylcholine at EC20, 100% = acetylcholine 1 μM, 0% = DMSO; for EC50: inflection point in the concentration-dependent curve, acetylcholine at EC20 (final 0.6-0.8 nM), CHO-K1 cells expressing human M1, Fluo-4, FLIPRtetra, read-out: IP value
Procedure: Measurement of M1 Receptor Positive Allosteric Modulator (M1PAM) Activity
The activity of a test compound in the presence of acetylcholine at EC20 concentration (final concentration 0.6-0.8 nM), which affords an action corresponding to about 20% of the maximum activity, was measured as PAM activity. The method is as follows. CHO-K1 cells stably expressing a human M1 receptor (hCHRM1) were plated on a 384-well black clear bottom plate (BD Falcon) at 5,000 cells/well, and cultured in an incubator at 37° C., 5% CO2 for 1 day. The medium in the cell plate was removed, and assay buffer A containing calcium indicator (Recording medium (DOJINDO LABORATORIES), 0.1% BSA (Wako Pure Chemical Industries, Ltd.), 2.5 μg/mL Fluo-4 AM (DOJINDO LABORATORIES), 0.08% Pluronic F127 (DOJINDO LABORATORIES), 1.25 mM probenecid (DOJINDO LABORATORIES)) was added at 30 μL/well. The cells were left standing in the incubator at 37° C., 5% CO2 for 30 min, and further left standing at room temperature for 30 min. A test compound prepared by diluting with assay buffer B (HBSS (Invitrogen), 20 mM HEPES (Invitrogen), 0.1% BSA) containing 2.4-3.2 nM acetylcholine was added at 10 μL/well, and the fluorescence was measured by FLIPRtetra (Molecular Devices) for 1 min every 1 second. With the definition that the amount of change in the fluorescence on addition of acetylcholine (final concentration 1 μM) is 100% and that on addition of DMSO instead of a test compound is 0%, the activity (%) of the test compound was calculated, and the inflection point in the concentration-dependent curve of the test compound was calculated as IP values.

Structure (SMILES) | activity (%) at 10 μM [%] | EC50 [nM]
Cn1cc2cc(-c3ccc(CN4Cc5ccnc(OCC(C)(F)F)c5C4=O)cc3)ccc2n1 [Example 14, 4-(2,2-difluoropropoxy)-2-(4-(2-methyl-2H-indazol-5-yl)benzyl)-1,2-dihydro-3H-pyrrolo[3,4-c]pyridin-3-one] | 88 | 51
CC(F)(F)COc1nccc2c1C(=O)N(Cc1ccc(-c3cnn(C4CC4)c3)cc1)C2 [Example 17, 2-(4-(1-cyclopropyl-1H-pyrazol-4-yl)benzyl)-4-(2,2-difluoropropoxy)-1,2-dihydro-3H-pyrrolo[3,4-c]pyridin-3-one] | 99 | 95
CCC(F)(F)COc1nccc2c1C(=O)N(Cc1ccc(-c3cnnc(C)c3)cc1)C2 [Example 19, 4-(2,2-difluorobutoxy)-2-(4-(6-methylpyridazin-4-yl)benzyl)-1,2-dihydro-3H-pyrrolo[3,4-c]pyridin-3-one] | 98 | 240
CC(F)(F)COc1nccc2c1C(=O)N(Cc1ccc(-c3ccns3)cc1)C2 [Example 20, 4-(2,2-difluoropropoxy)-2-(4-(1,2-thiazol-5-yl)benzyl)-1,2-dihydro-3H-pyrrolo[3,4-c]pyridin-3-one] | 91 | 360
CCn1cc(-c2ccc(CN3Cc4ncnc(OCC(F)(F)CC)c4C3=O)s2)cn1 [Example 30, 4-(2,2-difluorobutoxy)-6-((5-(1-ethyl-1H-pyrazol-4-yl)-2-thienyl)methyl)-6,7-dihydro-5H-pyrrolo[3,4-d]pyrimidin-5-one] | 103 | 96
O=C1c2c(ccnc2OCC(F)F)CN1Cc1ccc(-c2cnn(CC(F)F)c2)cc1F [Example 56, 4-(2,2-difluoroethoxy)-2-(4-(1-(2,2-difluoroethyl)-1H-pyrazol-4-yl)-2-fluorobenzyl)-1,2-dihydro-3H-pyrrolo[3,4-c]pyridin-3-one] | 102 | 21
O=C1c2c(ccnc2OCC(F)F)CN1Cc1ccc(-c2cnn(CC(F)(F)F)c2)cc1F [Example 57] | 101 | 18
CCn1cc(-c2ccc(CN3Cc4ccnc(OCC(F)F)c4C3=O)c(F)c2)cn1 [Example 58, 4-(2,2-difluoroethoxy)-2-(4-(1-ethyl-1H-pyrazol-4-yl)-2-fluorobenzyl)-1,2-dihydro-3H-pyrrolo[3,4-c]pyridin-3-one] | 104 | 35
CCC(F)(F)COc1nccc2c1C(=O)N(Cc1ccc(-c3cnn(CC(F)F)c3)cc1F)C2 [Example 59, 4-(2,2-difluorobutoxy)-2-(4-(1-(2,2-difluoroethyl)-1H-pyrazol-4-yl)-2-fluorobenzyl)-1,2-dihydro-3H-pyrrolo[3,4-c]pyridin-3-one] | 107 | 17
CCn1cc(-c2ccc(CN3Cc4ccnc(OCC(F)(F)CC)c4C3=O)c(F)c2)cn1 [Example 60, 4-(2,2-difluorobutoxy)-2-(4-(1-ethyl-1H-pyrazol-4-yl)-2-fluorobenzyl)-1,2-dihydro-3H-pyrrolo[3,4-c]pyridin-3-one] | 94 | 7.4
O=C1c2c(ccnc2OCC(F)F)CN1Cc1ccc(-c2cnn(CC(F)F)c2)cc1 [Example 61, 4-(2,2-difluoroethoxy)-2-(4-(1-(2,2-difluoroethyl)-1H-pyrazol-4-yl)benzyl)-1,2-dihydro-3H-pyrrolo[3,4-c]pyridin-3-one] | 91 | 51

The next lines start with the values.

activity (%) at 10 μM [%] | EC50 [nM] | Structure (SMILES)
100 | 16 | Cc1nn(C)cc1-c1cc(F)c(CN2Cc3ncnc(OCC(F)F)c3C2=O)s1 [Example 15, 4-(2,2-difluoroethoxy)-6-((5-(1,3-dimethyl-1H-pyrazol-4-yl)-3-fluoro-2-thienyl)methyl)-6,7-dihydro-5H-pyrrolo[3,4-d]pyrimidin-5-one]
111 | 85 | Cn1cc(-c2ccc(CN3Cc4ccnc(OCCC(F)(F)F)c4C3=O)c(F)c2)nn1 [Example 16, 2-(2-fluoro-4-(1-methyl-1H-1,2,3-triazol-4-yl)benzyl)-4-(3,3,3-trifluoropropoxy)-1,2-dihydro-3H-pyrrolo[3,4-c]pyridin-3-one]
102 | 280 | Cc1nn(C)cc1-c1ccc(CN2Cc3ccnc(OCC(F)(F)C(F)F)c3C2=O)cc1 [Example 18, 2-(4-(1,3-dimethyl-1H-pyrazol-4-yl)benzyl)-4-(2,2,3,3-tetrafluoropropoxy)-1,2-dihydro-3H-pyrrolo[3,4-c]pyridin-3-one]
101 | 290 | CC(F)(F)COc1nccc2c1C(=O)N(Cc1ccc(-c3ccoc3)cc1F)C2 [Example 21, 4-(2,2-difluoropropoxy)-2-(2-fluoro-4-(3-furyl)benzyl)-1,2-dihydro-3H-pyrrolo[3,4-c]pyridin-3-one]
100 | 77 | Cc1nn(C)cc1-c1ccc(CN2Cc3ncnc(OCC(F)F)c3C2=O)s1 [Example 34, 4-(2,2-difluoroethoxy)-6-((5-(1,3-dimethyl-1H-pyrazol-4-yl)-2-thienyl)methyl)-6,7-dihydro-5H-pyrrolo[3,4-d]pyrimidin-5-one]
98 | 27 | CCn1cc(-c2ccc(CN3Cc4ncnc(OCC(F)(F)F)c4C3=O)c(F)c2)cn1 [Example 35, 6-(4-(1-ethyl-1H-pyrazol-4-yl)-2-fluorobenzyl)-4-(2,2,2-trifluoroethoxy)-6,7-dihydro-5H-pyrrolo[3,4-d]pyrimidin-5-one]
99 | 22 | Cc1nn(C)cc1-c1ccc(CN2Cc3ncnc(OCC(F)(F)F)c3C2=O)c(F)c1 [Example 36, 6-(4-(1,3-dimethyl-1H-pyrazol-4-yl)-2-fluorobenzyl)-4-(2,2,2-trifluoroethoxy)-6,7-dihydro-5H-pyrrolo[3,4-d]pyrimidin-5-one]
98 | 46 | CCn1cc(-c2ccc(CN3Cc4ncnc(OCC(F)(F)F)c4C3=O)cc2)cn1 [Example 37, 6-(4-(1-ethyl-1H-pyrazol-4-yl)benzyl)-4-(2,2,2-trifluoroethoxy)-6,7-dihydro-5H-pyrrolo[3,4-d]pyrimidin-5-one]
93 | 40 | Cc1nn(C)cc1-c1ccc(CN2Cc3ncnc(OCC(F)(F)F)c3C2=O)cc1 [Example 39, 6-(4-(1,3-dimethyl-1H-pyrazol-4-yl)benzyl)-4-(2,2,2-trifluoroethoxy)-6,7-dihydro-5H-pyrrolo[3,4-d]pyrimidin-5-one]
96 | 9 | Cc1nn(C)cc1-c1ccc(CN2Cc3ncnc(OCC(F)F)c3C2=O)c(F)c1 [Example 40, 4-(2,2-difluoroethoxy)-6-(4-(1,3-dimethyl-1H-pyrazol-4-yl)-2-fluorobenzyl)-6,7-dihydro-5H-pyrrolo[3,4-d]pyrimidin-5-one]
106 | 23 | Cc1nn(C)cc1-c1ccc(CN2Cc3ncnc(OCC(F)F)c3C2=O)cc1 [Example 42, 4-(2,2-difluoroethoxy)-6-(4-(1,3-dimethyl-1H-pyrazol-4-yl)benzyl)-6,7-dihydro-5H-pyrrolo[3,4-d]pyrimidin-5-one]
86 | 6.7 | CCn1cc(-c2ccc(CN3Cc4ncnc(OCC(C)(C)F)c4C3=O)c(F)c2)cn1 [Example 44, 6-(4-(1-ethyl-1H-pyrazol-4-yl)-2-fluorobenzyl)-4-(2-fluoro-2-methylpropoxy)-6,7-dihydro-5H-pyrrolo[3,4-d]pyrimidin-5-one]
87 | 10 | CCn1cc(-c2ccc(CN3Cc4ncnc(OCC(C)(C)F)c4C3=O)cc2)cn1 [Example 45, 6-(4-(1-ethyl-1H-pyrazol-4-yl)benzyl)-4-(2-fluoro-2-methylpropoxy)-6,7-dihydro-5H-pyrrolo[3,4-d]pyrimidin-5-one]
90 | 5.2 | Cc1nn(C)cc1-c1ccc(CN2Cc3ncnc(OCC(C)(C)F)c3C2=O)c(F)c1 [Example 46, 6-(4-(1,3-dimethyl-1H-pyrazol-4-yl)-2-fluorobenzyl)-4-(2-fluoro-2-methylpropoxy)-6,7-dihydro-5H-pyrrolo[3,4-d]pyrimidin-5-one]

— patent US10208046B2, “Nitrogen-containing heterocyclic compound” (Takeda Pharmaceutical Company Limited, priority 2014, dated 2019)
